Measurements: US11213555B2, “Intravenous injection for enhancing immune function” (priority 2016, dated 2022)
Like-named read-outs stand apart in the source and are kept apart here. Ends that are not written are not given here.

Experiments:
[1] = Spleen index (immune organ index) in immunosuppressed mouse models; details: immunosuppressed mice (dexamethasone 40 mg/kg i.p., five days); 0.2 mg/kg via tail vein, once a day for five days
monocytes-macrophages [2] = details: immunosuppressed mice (dexamethasone 40 mg/kg i.p., five days); 0.2 mg/kg via tail vein, once a day for five days
monocytes-macrophages [3] = experiment: Carbon clearance assay, phagocytosis of monocytes-macrophages in normal mice; details: normal Kunming mice; 0.2 mg/kg via tail vein, once a day for five days; 2 h after last dose
[4] = system: Ehrlich ascites carcinoma; experiment: Body weight gain and spleen index of Ehrlich ascites carcinoma mice; details: EAC ICR mice; 0.2 mg/kg via tail vein, one day before inoculation then 7 consecutive days
[5] = Spleen index (immune organ index) in normal mice; details: 0.2 mg/kg via tail vein, once a day for five days, 2 h after last dose

RKDVY [Thymopentin, thymopentin]
Spleen index (%) [1]: 0.546 ± 0.097^ΔΔ %
Carbon clearance index K × 10^3 (monocytes-macrophages [2]): 7.773 ± 1.018^ΔΔ
Carbon clearance index K × 10^3 (monocytes-macrophages [3]): 4.874 ± 0.582 ^
Body weight gain [4]: 6.190 ± 2.087 g
Spleen index (%) [4]: 0.221 ± 0.036%
Spleen index (%) [5]: 0.642 ± 0.091%
